# According to patent US11401376B2, “Chemical compounds for coating of nanostructures” (Spago Nanomedical AB, priority 2017, dated 2022):
# Tests used:
# Format in all cases: physicochemical
# [1] = Heat treatment, loss of coating (Example 17); details: for Loss of coating: coated nanostructures, 80° C. for 30 minutes, washed on 10 kDa filter, Si/P ratio by ICP-OES
# Description: The sample was moved to a 20 mL flask and degassed by three N2-vacuum cycles and was then kept under N2. The sample was heated in a silicon oil bath at 80° C. for 30 minutes and was then cooled to ambient room temperature. A reference aliquot was withdrawn (A). The remaining sample was washed with four times with milliQ water on a 10 kDa Vivaspin 6 centrifugation filter (Sartorious). A reference aliquot (B) was withdrawn from the retentate. Reference aliquots A, and B were analyzed with ICP-OES.
# [2] = Calcium induced aggregation of the coated nanostructures (Example 15); details: 0-8 mM CaCl2, 10 mM Tris-HCl 150 mM NaCl pH 7.4, 1 h room temperature
# Description: Volumes of nanostructure were added to 1 ml aliquots of 10 mM Tris-HCl 150 mM NaCl pH 7.4 containing 0, 0.5, 1, 2, 4 and 8 mM CaCl2) in microcentrifuge tubes so that the final concentration of phosphorus was 0.5 mM. The samples were vortexed, incubated at room temperature for 1 h and centrifuged for 10 min at 12000×g. The supernatants (700 μl) were removed and analyzed by ICP for phosphorus concentrations. The phosphorus concentrations were normalized to the concentration in corresponding samples without CaCl2) and plotted as ‘% remaining in solution’ against the concentration of CaCl2) in the reaction mixture. When 90% or more remains in solution the material is considered robust against calcium induced aggregation.
# [3] = Stability of coated nanostructures on manganese loading / process conditions (GFC, Example 18)
# Description: 200 ml of the crude solution of coated nanostructures of Example 13b was added a solution of 0.256 g MnCl2.4H2O dissolved in 2.56 ml ethylene glycol. The pH was adjusted to 4.07 with 1 M NaOH. The manganese solution was added to the reaction. An aliquot A was taken out. The reaction was heated at 100° C. for 25 h 30 min after which the temperature descended to ambient room temperature. An aliquot B was withdrawn.
Substance,Loss of coating [1] [%],hydrolysis of the coating bound to polymeric nanostructures ([1]; neutral to basic conditions),Ca resistance [2],stability of coated nanostructures under the coating / process conditions [3]
1-[ω-methyl-(ethyleneoxy)12-20]-3-(prop-3-triethoxysilyl-1-yl- [A],5,prone to slow hydrolysis,Y (When 90% or more remains in solution the material is considered robust against calcium induced aggregation),–
"4-[ω-methyl-(ethyleneoxy)12-20]hepta-1,6-diene [Compound 43]",0,–,–,–
"N,N-bis(prop-3-trimethoxysilyl-1-yl)-2-[ω-methyl-(ethyleneoxy)8-11]acetamide [Compound 54]",–,–,–,degraded substantially
